Reference: US11419902B2, “Compositions comprising bacterial strains” (4D Pharma Research Limited, priority 2018, dated 2022)

What was measured:
[1] = test system: histone deacetylase; assay: Histone deacetylase activity in HT-29 cells; type: cell-based; details: 10% cell free supernatant, 48 hours
Experimental: Cell free supernatants of stationary phase bacterial cultures were isolated by centrifugation and filtering in a 0.22 uM filter. HT-29 cells were used 3 days post confluence and stepped down in 1 mL DTS 24 hours prior to commencement of the experiment. The HT-29 cells were challenged with 10% cell free supernatant diluted in DTS and was is left to incubate for 48 hours. […] proteins were then extracted using the Sigma Aldrich […] extraction kit and samples were snap frozen prior to HDAC activity measurement. HDAC activity was assessed fluorometrically using the Sigma Aldrich (UK) kit.

[2] = molecular target: T1, HDAC1 (Homo sapiens, UniProt Q13547); assay: Specific HDAC activity analysis (fluorogenic assay kit); type: biochemical; details: cell free supernatant diluted 1 in 10
T1 construct: purchased BPS Bioscience, CA
Experimental: (§1) Specific HDAC inhibition activity was analysed for HDAC1, 2, 3, 4, 5, 6, 9 using fluorogenic assay kits for each type of HDAC (BPS Bioscience, CA). Assays were conducted according to manufacturer's instructions and each sample were performed in replicates. Cell free supernatants were diluted 1 in 10 and exposed to specific HDAC proteins provided in the kit to maintain consistency between methods.
(§2) The specific HDAC inhibition profile of the test bacteria strain was investigated. Specific HDAC inhibition assays (BPS Bioscience, CA) were carried out for Class I and Class II HDACs. The ability of the bacterial strain to inhibit HDAC enzymes was compared to butyrate, hexanoic and valeric acid.

[3] = molecular target: T2, HDAC2 (Homo sapiens, UniProt Q92769); assay: as above; type: biochemical; details: cell free supernatant diluted 1 in 10
T2 construct: purchased BPS Bioscience, CA
Experimental: as §1, §2

[4] = molecular target: T3, HDAC3 (Homo sapiens, UniProt O15379); assay: as above; type: biochemical; details: cell free supernatant diluted 1 in 10
T3 construct: purchased BPS Bioscience, CA
Experimental: as §1, §2

[5] = test system: class II HDACs; assay: as above; type: biochemical; details: data not shown
Experimental: as §1, §2

[6] = test system: colon; assay: Intestinal permeability assay (Ussing chambers); type: in vivo; details: colon of mice fed with MRx0029
Experimental: Animals were allowed to habituate to their holding room for one week after arrival into the animal unit. They receive oral gavage (200 μL dose) of live biotherapeutics at a dose of 1×10^9 CFU for 6 consecutive days between 15:00 and 17:00. On day 7, the animals are decapitated, and tissues are harvested for experimentation. Animals were sacrificed in a random fashion regarding treatment and testing condition; sampling occurred between 9.00 a.m. and 2:30 p.m. Trunk blood was collected in potassium EDTA (Ethylene Diamine Tetra Acetic Acid) tubes and spun for 15 min at 4000 g. Plasma was isolated and stored at −80° C. for further analysis. The brain was quickly excised, dissected and each brain region was snap-frozen on dry ice and stored at −80° C. for further analysis. Spleen was removed, collected in 5 mL RPMI media (with L-glutamine and sodium bicarbonate, R8758 Sigma+10% FBS (F7524, Sigma)+1% Pen/Strep (P4333, Sigma)) and processed immediately after culls for ex-vivo immune stimulation. Intestinal tissue (2 3 cm segments of ileum and colon closest to the caecum were excised, and the furthest 1 cm 2 cm of tissue from the caecum were used) were mounted into the Ussing chambers for intestinal permeability assay. The caecum was removed, weighted and stored at −80° C. for SCFAs analysis.

[7] = test system: MAP2; assay: MAP2 gene expression in SKMEL2 cell line (qPCR); type: cell-based; details: SKMEL2, relative to both negative controls (cell line only, and YCFA+)
Experimental: (§3) Cells were plated in 12-well plates at density of 2×10^5 cells/well. After 24 h cells were treated with either DMSO or Vemurafenib (662005; EMD Millipore; VEMU; SKMEL28, SKMEL31, 451Lu, HT29 (1 μM) SKMEL2 (10 μM) or Azacytidine-C (A3656; Sigma Aldrich; AzaC; 5 μg/ml) or both drugs (VEMU+Aza) together, in presence of 10% bacteria supernatants or absence of it (YCFA+). Total RNA was extracted using the RNeasy mini kit (Qiagen, Manchester, UK) according to the manufacturer's instructions, and the RNA concentration was determined by spectrophotometer at 260/280 nm (NanoDrop ND-1000; Thermo Fisher Scientific, Loughborough). For mRNA expression analysis, cDNA was prepared from 2000 ng of total RNA using the High-Capacity cDNA reverse transcription kit (Thermo Fisher, Loughborough) according to the manufacturer's instructions. The reverse transcription reactions were performed in a thermocycler (Biometra, Germany) at 25° C. for 10 min, 37° C. for 120 min, and 85° C. for 5 min Resulting cDNA was amplified in duplicates by the SYBR-Green PCR assay, and products were detected on QuantStudio 6 flex real-time PCR machine (Applied Biosystems, UK) using a standardised profile (initial denaturation of 95° C. for 10 minutes, followed by 40 cycles of 10 seconds of denaturation at 95° C. and 30 seconds of annealing/extension at 65° C.). […]

[8] = test system: MAP2; assay: MAP2 gene expression in 451Lu cell line (qPCR); type: cell-based; details: relative to the cell line only negative control
Experimental: as §3

[9] = test system: 451Lu melanoma cell line; assay: Clonogenic survival of 451Lu cell line; type: cell-based; details: relative to both negative controls (cell line only, and YCFA+ +DMSO)
Experimental: Cells were trypsinized and 200 cells/well were seeded in 12-well plates. After 48 h cells were treated with the appropriate drugs in absence (YCFA+) or presence of 10% bacterial supernatant and were re-fed every three days. On day 21 after seeding, cells were fixed in ice-cold methanol and stained with Crystal Violet blue. […] were counted and survival fraction was calculated as number of colonies divided by the number of plated cells (plating efficiency) of treated divided by the plating efficiency of control.
The effects of the following treatments were assessed on the 451Lu melanoma cell line (V600E oncogenic mutation in BRAF): (1) MRx0029; (2) Vemurafenib (VEMU) in YFCA+ medium; (3) VEMU and MRx0029; (4) Azacytidine-C (Aza-c) in YFCA+ medium; (5) Aza-c and MRx0029; (6) VEMU, Aza-c and MRx0029.

T1 sequence (Q13547 whole entry): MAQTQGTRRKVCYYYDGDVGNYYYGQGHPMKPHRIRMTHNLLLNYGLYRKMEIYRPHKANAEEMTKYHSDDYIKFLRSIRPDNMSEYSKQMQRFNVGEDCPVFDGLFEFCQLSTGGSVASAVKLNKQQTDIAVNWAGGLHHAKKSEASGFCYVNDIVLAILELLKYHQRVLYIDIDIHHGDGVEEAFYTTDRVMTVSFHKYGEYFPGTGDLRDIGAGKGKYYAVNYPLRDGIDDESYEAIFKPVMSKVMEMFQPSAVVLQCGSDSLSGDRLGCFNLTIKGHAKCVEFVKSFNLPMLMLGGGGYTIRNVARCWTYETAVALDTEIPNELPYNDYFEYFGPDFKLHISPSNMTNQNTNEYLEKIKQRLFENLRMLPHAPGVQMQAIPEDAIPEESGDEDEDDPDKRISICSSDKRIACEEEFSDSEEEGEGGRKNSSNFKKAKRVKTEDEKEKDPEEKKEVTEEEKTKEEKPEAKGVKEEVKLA
T3 sequence (O15379 whole entry): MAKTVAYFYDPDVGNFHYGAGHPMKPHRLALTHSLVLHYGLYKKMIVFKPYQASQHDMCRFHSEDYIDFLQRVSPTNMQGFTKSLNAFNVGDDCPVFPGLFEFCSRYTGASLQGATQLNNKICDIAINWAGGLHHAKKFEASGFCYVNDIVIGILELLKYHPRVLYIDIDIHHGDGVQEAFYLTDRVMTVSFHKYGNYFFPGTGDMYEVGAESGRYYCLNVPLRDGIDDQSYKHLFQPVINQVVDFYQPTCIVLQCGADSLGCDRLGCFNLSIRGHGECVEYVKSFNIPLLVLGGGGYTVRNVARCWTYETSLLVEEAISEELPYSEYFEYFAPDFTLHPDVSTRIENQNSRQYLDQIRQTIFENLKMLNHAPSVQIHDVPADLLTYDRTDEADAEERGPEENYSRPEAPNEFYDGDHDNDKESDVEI
T3 sequence (Q9Y618 395-489 partner limits assumed): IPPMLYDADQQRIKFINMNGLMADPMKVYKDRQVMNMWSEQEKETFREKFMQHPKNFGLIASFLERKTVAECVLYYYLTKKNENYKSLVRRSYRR
T2 sequence (Q92769 whole entry): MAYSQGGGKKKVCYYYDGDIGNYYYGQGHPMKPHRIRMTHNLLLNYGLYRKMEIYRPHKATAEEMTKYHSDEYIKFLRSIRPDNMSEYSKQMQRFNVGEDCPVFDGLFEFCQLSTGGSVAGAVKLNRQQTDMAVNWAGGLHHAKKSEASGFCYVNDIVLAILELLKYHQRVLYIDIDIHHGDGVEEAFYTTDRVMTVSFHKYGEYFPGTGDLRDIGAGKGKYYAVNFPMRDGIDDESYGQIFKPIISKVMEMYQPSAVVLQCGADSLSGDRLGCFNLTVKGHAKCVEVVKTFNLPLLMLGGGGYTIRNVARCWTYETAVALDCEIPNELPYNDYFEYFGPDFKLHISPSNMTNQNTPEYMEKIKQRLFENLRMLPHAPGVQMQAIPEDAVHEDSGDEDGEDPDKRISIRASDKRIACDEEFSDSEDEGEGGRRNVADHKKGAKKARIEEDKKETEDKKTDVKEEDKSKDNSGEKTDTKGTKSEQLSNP

Substance: Megasphaera massiliensis MRx0029
- levels of histone deacetylase activity [1]: able reduce the levels of histone deacetylase activity
- inhibition of HDAC1 [2]: very potent inhibitor
- inhibition of HDAC2 [3]: very potent inhibitor
- inhibition of HDAC3 [4]: very potent inhibitor
- inhibition of class II HDACs [5]: not as significant
- permeability function in the colon [6]: decrease the permeability function
- MAP2 gene expression [7]: increased MAP2 gene expression
- MAP2 gene expression [8]: increased MAP2 gene expression
- clonogenic survival [9]: decreased clonogenic survival
